Measurements published in patent publication US7651695B2, “Medicated stents for the treatment of vascular disease” (Advanced Cardiovascular Systems, Inc., priority 2001, dated 2010).
“And” between values parts separate entries of the source, which are not always exact repeats. Identical values can stand only once. Like-named read-outs stand apart in the source and are kept apart here. Starred links: 1 amine or outer side, 2 acyl side, 3 side chain; linkers in the order of their positions; H or OH if unused. Positions of bridges follow the written chain, without caps; N, C: chain ends. Non-standard residues stand in square brackets, D forms with d. Residues, ends and D or L forms follow the SMILES beside them. Chains are numbered I, II in the order given. Actinocin(9to1) = Cc1c2oc3c(C)ccc(C(=O)[*:1])c3nc-2c(C(=O)[*:2])c(N)c1=O; NMeV = CN[C@H](C(=O)O)C(C)C; Sar = CNCC(=O)O

Legend:
[1] = tested on: Medial smooth muscle cells (SMC) from rat aorta; test: Inhibition of SMC proliferation (thymidine incorporation); assay type: cell-based; conditions: read-out: IC50 (concentration at which 50% of the cells stop proliferating)
Description: Medial smooth muscle cells (SMC) were isolated from rat aorta and cultured according to explant methods known to one of ordinary skill in the art. Cells were harvested via trypsinization and subcultivated. Cells were identified as vascular SMC through their characteristic hill-and-valley growth pattern as well as indirect immunofluorescence with monoclonal anti SMC α-actin. Studies were performed with cells at passage 3-4. SMC monlayers were established on 24 well culture dishes, scrape wounded and treated with actinomycin D, mytomycin and docetaxel. The cells were exposed to the drug solution of different concentrations for 2 hours and then washed with buffered saline solution. The proliferation of the cells was quantified by standard technique of thymidine incorporation.
The IC50 (concentration at which 50% of the cells stop proliferating) of actinomycin D was 10^−9M as compared to 5×10^−5M for mitomycin and 10^−6M for docetaxel.

[2] = tested on: neointimal formation in the coronary arteries; test: Porcine coronary stent injury model, drug delivered with microporous balloon catheter; assay type: in vivo, Domestic swine
Description: Porcine coronary models were used to assess the degree of the inhibition of neointimal formation in the coronary arteries of a porcine stent injury model by Actinomycin D, delivered with a microporous balloon catheter (1×10^6 pores/cm^2 with size ranging from 0.2-0.8 micron).
The preclinical animal testing was performed in accordance with the NIH Guide for Care and Use of Laboratory Animals. Domestic swine were utilized to evaluate effect of the drug on the inhibition of the neointimal formation. Each testing procedure, excluding the angiographic analysis at the follow-up endpoints, was conducted using sterile techniques. During the study procedure, the activated clotting time (ACT) was monitored regularly to ensure appropriate anticoagulation. Base line blood samples were collected for each animal before initiation of the procedure. Quantitative coronary angiographic analysis (QCA) and intravascular ultrasound (IVUS) analysis was used for vessel size assessment.
The vessels at the sites of the delivery were denuded by inflation of the PTCA balloons to 1:1 balloon to artery ratio and moving the balloons back and forth 5 times. Actinomycin D was delivered to the denuded sites at 3.5 atm (3.61 kg/sq. cm) for 2 minutes using the microporous balloon catheters before stent deployment. The average volume of delivery was about 3.3+/−1.2 ml. Following drug delivery, stents were deployed at the delivery site such that final stent to artery ratio was 1.1:1.
QCA and IVUS analyses were used for stent deployment guidance. Pre-stenting IVUS measurements of the lumen size at the targeted vessel sites were performed for determination of the balloon (size) inflation pressure. Quantitative analysis of the stented coronary arteries to compare pre-stenting, post-stenting, follow-up minimal luminal diameters, stent recoil, and balloon/stent to artery ratio were performed. Following stent implantation and final angiogram, all devices were withdrawn and the wounds closed; the animals were allowed to recover from anesthesia as managed by the attending veterinarian or animal care professionals at the research center.
Upon return to the research laboratory at the 28-day endpoint, angiographic assessments were performed. Coronary artery blood flow was assessed and the stented vessels were evaluated to determine minimal lumen diameter. The animals were euthanized following this procedure at the endpoint. Following euthanasia, the hearts were pressure perfusion fixed with formalin and prepared for histological analysis, encompassing light microscopy, and morphometry. Morphometric analysis of the stented arteries included assessment of the position of the stent struts and determination of vessel/lumen areas, percent (%) stenosis, injury scores, intimal and medial areas and intima/media ratios. Percent stenosis is quantitated by the following equation: 100(IEL area−lumen area)/IEL area where IEL is the internal elastic lamia.
The control group of animals received delivery of water instead of the drug. The test group of animals received actinomycin D in two different concentration of 10^−5M and 10^−4M. […] FIGS. 2A and 2B illustrate sample pictures of the histology slides of the coronary vessels from the control and the Dose 1 group, respectively.

[3] = tested on: porcine coronary arteries (EEL/IEL area); test: Positive remodeling by stents coated with EVAL impregnated with actinomycin D in porcine coronary arteries; assay type: in vivo
From the text: “Positive remodeling” is generally defined as the ability of the vessel walls to structurally adapt, by increasing in lumen size, to chronic stimuli. A positively remodeled lumen wall has a greater diameter or size as compared to a lumen wall which has not been subjected to the remodeling effect. Accordingly, the flow of blood through the remodeled site is increased—flow which would have otherwise been reduced because of, for example, the presence of plaque build-up or migration and proliferation of cells. The index of remodeling is defined by the ratio of the area circumscribed by the external elastic lamia (EEL) of the lesion site to the area circumscribed by the EEL of a reference site. As a result of the positive remodeling of the EEL, the internal elastic lamina (IEL), in response, can also increases in area or diameter.
In vivo data is provided illustrated positive remodeling caused by the application of actinomycin D. Stents coated with EVAL impregnated with actinomycin D and a control group of stents coated with EVAL free from actinomycin D were implanted in porcine coronary arteries. The animals were sacrificed at the end of 28 days. […] The index of remodeling was 1.076 (8.54/7.94).
FIGS. 3A and 3B illustrate sample pictures of the histology slides of the coronary vessels from the control group 64 RCA ([…]) and the actinomycin D loaded stent group 68 LAD (Left Anterior Descending), respectively. The stent used was an Advanced Cardiovascular Systems Multi-Link Duet™ (stainless steel). As is illustrated by FIG. 3B, the positive remodeling of IEL 10, caused by the application of actinomycin D, creates a gap between stent struts 12 and IEL 10. Thrombus deposites, illustrated by reference number 14, are formed in the gap over time. The use of a self-expandable stent eliminates the formation of the gap as the stent self-expands in response to the positive remodeling of IEL. Thrombus deposits can be, accordingly, eliminated.

[4] = Dose 1, 1E−05 M, n = 30, 28-day endpoint
[5] = Dose 2, 1E−04 M, n = 21, 28-day endpoint
[6] = average of 24 vessel sections, 28 days
[7] = one value per vessel section (ID # in the cell to the left), 28 days
[8] = rat aortic SMC, scrape wounded, 2 hours drug exposure, thymidine incorporation

Compound | IC50 ([1]; Rattus norvegicus, 2 h) [nM] | Percent Diameter Stenosis, angiographic data (QCA) ([2]; Dose 1, 1E−05 M, n = 10, 28-day endpoint) | Percent Stenosis (IEL area-lumen area)/IEL area, histomorphometric data [2, 4] | Residual Lumen (Lumen area)/IEL area, histomorphometric data [2, 4] | Percent Diameter Stenosis, angiographic data (QCA) ([2]; Dose 2, 1E−04 M, n = 7, 28-day endpoint) | Percent Stenosis (IEL area-lumen area)/IEL area, histomorphometric data [2, 5] | Residual Lumen (Lumen area)/IEL area, histomorphometric data [2, 5] | EEL area compared with control vessels ([3]; 28 days, actinomycin D-loaded vessels vs control vessels) | AVG % EEL growth ([3]; ActD vs EVAL) [%] | AVG % IEL growth ([3]; ActD vs EVAL) [%] | index of remodeling ([3]; EEL area ratio 8.54/7.94, actinomycin D-loaded vs EVAL control) | EEL Area, AVG [3, 6] [mm^2] | IEL Area, AVG [3, 6] [mm2] | EEL Area, individual vessel section [3, 7] | IEL Area, individual vessel section [3, 7] | IC50 [1, 8] [nM]
Cc1c2oc3c(C)ccc(C(=O)N[C@@H]4C(=O)N[C@H](C(C)C)C(=O)N5CCC[C@H]5C(=O)N(C)CC(=O)N(C)[C@@H](C(C)C)C(=O)O[C@@H]4C)c3nc-2c(C(=O)N[C@@H]2C(=O)N[C@H](C(C)C)C(=O)N3CCC[C@H]3C(=O)N(C)CC(=O)N(C)[C@@H](C(C)C)C(=O)O[C@@H]2C)c(N)c1=O [actinomycin D] (I: T[dV]P[Sar][NMeV] / II: T[dV]P[Sar][NMeV]; ester I:1-I:C, II:1-II:C; linker I:N-II:N via Actinocin(9to1)) | 1 | 36.8 +/− 9.7% | 51.8 +/− 13.8% | 0.49 +/− 0.14 | 32.3+/−11.7% | 54.1 +/− 11.7% | 0.46 +/− 0.08 | statistically significantly greater | 7.486 | 13.18 | 1.076 | 8.5425 | 7.4727 | 7.4498 mm^2 and 8.2509 mm^2 and 7.7342 mm^2 and 7.9207 mm^2 and 6.9926 mm^2 and 8.3883 mm^2 and 7.8546 mm^2 and 9.2545 mm^2 and 9.2515 mm^2 and 8.7854 mm^2 and 9.5164 mm^2 and 9.1504 mm^2 and 9.6679 mm^2 and 9.1237 mm^2 and 9.9849 mm^2 and 9.4765 mm^2 and 7.4424 mm^2 and 9.1462 mm^2 and 8.9504 mm^2 and 8.9117 mm^2 and 8.7533 mm^2 and 7.3249 mm^2 and 7.1061 mm^2 and 8.5830 mm^2 | 6.3785 mm2 and 7.5206 mm2 and 6.9992 mm2 and 6.9632 mm2 and 6.0418 mm2 and 7.4794 mm2 and 6.2324 mm2 and 8.3785 mm2 and 8.5819 mm2 and 8.0964 mm2 and 8.6879 mm2 and 8.0914 mm2 and 8.7181 mm2 and 8.0273 mm2 and 8.5222 mm2 and 8.3796 mm2 and 6.4219 mm2 and 7.7757 mm2 and 7.5392 mm2 and 7.6573 mm2 and 6.9749 mm2 and 6.2815 mm2 and 5.9760 mm2 and 7.6195 mm2 | –
CC(=O)O[C@@]12CO[C@@H]1C[C@H](O)[C@@]1(C)C(=O)[C@H](O)C3=C(C)[C@@H](OC(=O)[C@H](O)[C@@H](NC(=O)OC(C)(C)C)c4ccccc4)C[C@@](O)([C@@H](OC(=O)c4ccccc4)[C@H]21)C3(C)C [docetaxel] | – | – | – | – | – | – | – | – | – | – | – | – | – | – | – | 1000
CO[C@@]12[C@H](COC(N)=O)C3=C(C(=O)C(C)=C(N)C3=O)N1C[C@@H]1N[C@@H]12 [mitomycin] | – | – | – | – | – | – | – | – | – | – | – | – | – | – | – | 50000
